Measured values taken from patent publication CN104497008A, “取代噁唑烷酮类化合物及其使用方法和用途” (priority 2014, dated 2015).
In brackets after ≈: the same amount, converted by molar mass.

Assay: Solubility test of the compounds
Type: physicochemical
Conditions: water, 37 ℃, 24 h shaking, 40 rpm, HPLC; read-out: compound solubility
In the case of `NC(=O)N1CCc2sc(N3C[C@H](CNC(=O)c4ccc(Cl)s4)OC3=O)cc2C1` [实施例1, (S)-2-(5-((5-氯噻吩-2-甲酰氨基)甲基)-2-氧代噁唑烷-3-基)-6,7-二氢噻吩并[3,2-c]吡啶-5(4H)-甲酰胺], the solubility at 24 h is reported as 240 µg/mL (≈ 544 µM).
Work on `CC(=O)N1CCc2sc(N3C[C@H](CNC(=O)c4ccc(Cl)s4)OC3=O)cc2C1` [实施例2, (S)-N-((3-(5-乙酰基-4,5,6,7-四氢噻吩并[3,2-c]吡啶-2-基)-2-氧代噁唑烷-5-基)甲基)-5-氯噻吩-2-甲酰胺] yielded a solubility at 24 h of 110 µg/mL (≈ 250 µM).
With `NC(=O)N1CCc2cc(N3C[C@H](CNC(=O)c4ccc(Cl)s4)OC3=O)sc2C1` [实施例3, (S)-2-(5-((5-氯噻吩-2-甲酰氨基)甲基)-2-氧代噁唑烷-3-基)-4,5-二氢噻吩并[2,3-c]吡啶-6(7H)-甲酰胺] the solubility at 24 h was 260 µg/mL (≈ 590 µM).
In the case of `CC(=O)N1CCc2cc(N3C[C@H](CNC(=O)c4ccc(Cl)s4)OC3=O)sc2C1` [实施例4, (S)-N-((3-(6-乙酰基-4,5,6,7-四氢噻吩并[2,3-c]吡啶-2-基)-2-氧代噁唑烷-5-基)甲基)-5-氯噻吩-2-甲酰胺], the solubility at 24 h is reported as 130 µg/mL (≈ 295 µM).
Work on `CN1CCc2nc(N3C[C@H](CNC(=O)c4ccc(Cl)s4)OC3=O)sc2C1` [实施例5, (S)-5-氯-N-((3-(5-甲基-4,5,6,7-四氢噻唑[5,4-c]吡啶-2-基)-2-氧代噁唑烷-5-基)甲基)噻吩-2-甲酰胺] yielded a solubility at 24 h of 230 µg/mL (≈ 557 µM).
With `CN1CCc2cc(N3C[C@H](CNC(=O)c4ccc(Cl)s4)OC3=O)sc2C1` [实施例6] the solubility at 24 h was 220 µg/mL (≈ 534 µM).
With `O=C(NC[C@H]1CN(c2sc3ccccc3c2Cl)C(=O)O1)c1ccc(Cl)s1` [实施例7, (S)-5-氯-N-((3-(3-氯苯并[b]噻吩-2-基)-2-氧代噁唑烷-5-基)甲基)噻吩-2-甲酰胺] the solubility at 24 h was 80 µg/mL (≈ 187 µM).
Molecule `CN1CCc2nc(C(=O)NCC3COC(=O)N3C(=O)Nc3ccc(Cl)cn3)sc2C1` (centres unmarked) [实施例8, N-(5-氯吡啶-2-基)-4-((5-甲基-4,5,6,7-四氢噻唑并[5,4-c]吡啶-2-甲酰氨基)甲基)-2-氧代噁唑烷-3-甲酰胺] has a solubility at 24 h of 150 µg/mL (≈ 333 µM).
